# Data as given in US20240207236A1, “COMPOUND FOR PREVENTING OR TREATING DIABETES” (ONCOCROSS CO., LTD., priority 2021, published 2024).
# How the values were obtained:
# Assay type in all cases: in vivo, mice (C57BL/6)
# [1] = Feed intake of mice in STZ-induced insulin-resistant diabetes model; set-up: feed intake: unit not given here
# Experimental: (§1) STZ (Sigma-aldrich, S0130, 40 mg/kg b.w., in 0.1 M citrate buffer pH 4.5) was intraperitoneally administered to 9-week-old male mice (C57BL/6) once/1 day for 5 days to perform a first disease induction. After 7 weeks of the first induction, a second induction was performed using the same method as the first induction. For 5 days of an STZ administration period for the first induction, 10% sucrose was administered as drinking water. In addition, after 14 days of the second administration, blood sugar was confirmed to confirm the induction rate, and the induced animals were separated into groups. Experimental substances (R)-4-{(R)-1-[7-(3,4,5-trimethoxy-phenyl)-[1,6] naphthyridine-5-yloxy]-ethyl}pyrrolidine-2-one (BI-1002494) and cromolyn (OC-101) were administered orally into the stomach at 10 mL/kg using an oral administration syringe (sonde) before 16:00 daily for 12 weeks at a frequency of 7 days/week at doses shown in Table 1 below, respectively, and dexamethasone was orally administered as a positive control substance.
# [2] = test system: animal model of insulin-resistant diabetes; assay: Blood insulin (Mouse Insulin ELISA) and HOMA-IR
# Experimental: as §1
# (§2) After the observation period for mice of each group in Example 1 was terminated, all surviving animals were fasted in the same manner as when measuring blood sugar, and then anesthetized by inhaling isoflurane, and blood was collected from the abdominal vena cava through laparotomy. After the blood collection was completed, the veins and arteries were cut under anesthesia and exsanguinated. The collected blood was left at room temperature for 30 minutes or more and then centrifuged at 3,000 rpm for 20 minutes. Thereafter, glucose, blood urea nitrogen (BUN), and creatinine were analyzed using an automated blood biochemistry analyzer (Hitachi 3100, Hitachi Co. Ltd., Japan). Indoxyl sulfate (a substance that was mainly produced in the intestines to cause kidney damage, and a substance that caused end-stage renal failure by advancing kidney function damage in patients with renal failure during hemodialysis) was analyzed using LC MS/MS. In addition, blood insulin was analyzed according to a method represented by a commercial Mouse Insulin ELISA KIT (#AKRIN-011T, Sibayagi Co. Ltd., Japan).
# [3] = test system: animal model of insulin-resistant diabetes; assay: Blood biochemistry, automated analyzer, at end of observation; settings: for ALT, Mean / T-CHO, Mean / AST, Mean: 12 weeks, blood
# Experimental: as §1, §2
# [4] = test system: animal model of insulin-resistant diabetes; assay: Blood indoxyl sulfate by LC MS/MS; settings: 12 weeks
# Experimental: as §1, §2
# [5] = Drinking water intake of mice in STZ-induced insulin-resistant diabetes model; set-up: unit not given here
# Experimental: as §1
# [6] = Body weight of mice in STZ-induced insulin-resistant diabetes model
# Experimental: as §1
# [7] = after induction of diabetic disease, 12.5-50 mg/kg
structure (smiles),measurement,setting,value
"COc1cc(-c2cc3ncccc3c(O[C@H](C)[C@H]3CNC(=O)C3)n2)cc(OC)c1OC [BI-1002494, (R)-4-{(R)-1-[7-(3,4,5-trimethoxy-phenyl)-[1,6]naphthyridine-5-yloxy]-ethyl}pyrrolidine-2-one]",feed intake compared to the disease control group,"[1]; 12.5 mg/kg, after week 4 of administration",statistically significantly decreased
same,feed intake,"[1]; 25 mg/kg/day oral, week 1",5.60
same,feed intake,"[1]; 25 mg/kg/day oral, week 2",5.58
same,feed intake,"[1]; 25 mg/kg/day oral, week 3",5.26
same,feed intake,"[1]; 25 mg/kg/day oral, week 4",4.99
same,feed intake,"[1]; 25 mg/kg/day oral, week 5",5.15
same,feed intake,"[1]; 25 mg/kg/day oral, week 7",5.04
same,feed intake,"[1]; 25 mg/kg/day oral, week 8",4.95
same,feed intake,"[1]; 25 mg/kg/day oral, week 9",4.62
same,feed intake,"[1]; 25 mg/kg/day oral, week 10",4.63
same,feed intake compared to the disease control group,"[1]; 25 mg/kg, after week 6 of administration",statistically significantly decreased
same,feed intake,"[1]; 50 mg/kg/day oral, week 1",5.74
same,feed intake,"[1]; 50 mg/kg/day oral, week 4",5.14
same,feed intake,"[1]; 50 mg/kg/day oral, week 7",5.11
same,feed intake,"[1]; 50 mg/kg/day oral, week 9",4.30
same,feed intake,"[1]; 50 mg/kg/day oral, week 10",4.14
same,feed intake compared to the disease control group,"[1]; 50 mg/kg, after week 8 of administration",statistically significantly decreased
same,HOMA-IR compared with the disease control group,[2]; 25 mg/kg,statistically significantly reduced
same,HOMA-IR compared with the disease control group,[2]; 50 mg/kg,statistically significantly reduced
same,"insulin resistance (HOMA-IR), summary",[2]; [7],decreased in a dose-dependent manner
same,"ALT, Mean",[3]; 12.5 mg/kg/day oral,45.7 L⁻¹
same,"T-CHO, Mean",[3]; 12.5 mg/kg/day oral,151.6 dL⁻¹
same,"ALT, Mean",[3]; 25 mg/kg/day oral,30.9 L⁻¹
same,"AST, Mean",[3]; 25 mg/kg/day oral,76.8 L⁻¹
same,"T-CHO, Mean",[3]; 25 mg/kg/day oral,125.0 dL⁻¹
same,"ALT, Mean",[3]; 50 mg/kg/day oral,45.8 L⁻¹
same,"AST, Mean",[3]; 50 mg/kg/day oral,83.4 L⁻¹
same,"T-CHO, Mean",[3]; 50 mg/kg/day oral,138.7 dL⁻¹
same,dose dependence of GLU reduction,"[3]; 12.5, 25, 50 mg/kg",clear dose dependence
same,"blood glucose, summary",[3]; [7],decreased in a dose-dependent manner
same,"GLU, statistical comparison","[3]; all administered groups (12.5, 25, 50 mg/kg)",statistically significantly reduced
same,"Indoxyl sulfate, Mean",[4]; 12.5 mg/kg/day oral,2.2 µg/mL
same,"Indoxyl sulfate, Mean",[4]; 25 mg/kg/day oral,2.2 µg/mL
same,"Indoxyl sulfate, Mean",[4]; 50 mg/kg/day oral,1.9 µg/mL
same,"drinking water intake, Mean","[5]; 12.5 mg/kg/day oral, week 1",7.91
same,"drinking water intake, Mean","[5]; 12.5 mg/kg/day oral, week 2",7.41
same,"drinking water intake, Mean","[5]; 12.5 mg/kg/day oral, week 4",7.08
same,"drinking water intake, Mean","[5]; 12.5 mg/kg/day oral, week 5",7.16
same,"drinking water intake, Mean","[5]; 12.5 mg/kg/day oral, week 6",7.34
same,"drinking water intake, Mean","[5]; 12.5 mg/kg/day oral, week 7",7.24
same,"drinking water intake, Mean","[5]; 12.5 mg/kg/day oral, week 8",6.99
same,"drinking water intake, Mean","[5]; 12.5 mg/kg/day oral, week 9",7.40
same,"drinking water intake, Mean","[5]; 25 mg/kg/day oral, week 0",7.07
same,"drinking water intake, Mean","[5]; 25 mg/kg/day oral, week 1",7.62
same,"drinking water intake, Mean","[5]; 25 mg/kg/day oral, week 3",7.38
same,"drinking water intake, Mean","[5]; 25 mg/kg/day oral, week 4",6.73
same,"drinking water intake, Mean","[5]; 25 mg/kg/day oral, week 5",7.19
same,"drinking water intake, Mean","[5]; 25 mg/kg/day oral, week 6",7.34
same,"drinking water intake, Mean","[5]; 25 mg/kg/day oral, week 7",7.69
same,"drinking water intake, Mean","[5]; 25 mg/kg/day oral, week 8",7.43
same,"drinking water intake, Mean","[5]; 25 mg/kg/day oral, week 9",7.54
same,"drinking water intake, Mean","[5]; 25 mg/kg/day oral, week 10",7.15
same,"drinking water intake, Mean","[5]; 50 mg/kg/day oral, week 0",7.27
same,"drinking water intake, Mean","[5]; 50 mg/kg/day oral, week 1",7.04
same,"drinking water intake, Mean","[5]; 50 mg/kg/day oral, week 3",6.95
same,"drinking water intake, Mean","[5]; 50 mg/kg/day oral, week 4",7.13
same,"drinking water intake, Mean","[5]; 50 mg/kg/day oral, week 5",6.48
same,"drinking water intake, Mean","[5]; 50 mg/kg/day oral, week 9",6.51
same,"drinking water intake, Mean","[5]; 50 mg/kg/day oral, week 10",6.22
same,"body weight, Mean","[6]; 12.5 mg/kg/day oral, week 0",24 g
same,"body weight, Mean","[6]; 12.5 mg/kg/day oral, week 1",23.7 g
same,"body weight, Mean","[6]; 12.5 mg/kg/day oral, week 2",23 g
same,"body weight, Mean","[6]; 12.5 mg/kg/day oral, week 3",24.1 g
same,"body weight, Mean","[6]; 12.5 mg/kg/day oral, week 4",24.3 g
same,body weight compared to the disease control group,"[6]; 12.5 mg/kg, after week 5 of administration",statistically significantly increased
same,"body weight, Mean","[6]; 25 mg/kg/day oral, week 0",23.6 g
same,"body weight, Mean","[6]; 25 mg/kg/day oral, week 1",23.5 g
same,"body weight, Mean","[6]; 25 mg/kg/day oral, week 2",23.7 g
same,"body weight, Mean","[6]; 25 mg/kg/day oral, week 3",23.9 g
same,"body weight, Mean","[6]; 25 mg/kg/day oral, week 4",23.9 g
same,"body weight, Mean","[6]; 25 mg/kg/day oral, week 5",24 g
same,"body weight, Mean","[6]; 25 mg/kg/day oral, week 6",23.9 g
same,"body weight, Mean","[6]; 25 mg/kg/day oral, week 7",24 g
same,body weight compared to the disease control group,"[6]; 25 mg/kg, after week 8",statistically significantly increased
same,"body weight, Mean","[6]; 50 mg/kg/day oral, week 0",23.9 g
same,"body weight, Mean","[6]; 50 mg/kg/day oral, week 2",23.8 g
same,"body weight, Mean","[6]; 50 mg/kg/day oral, week 3",23.8 g
same,"body weight, Mean","[6]; 50 mg/kg/day oral, week 4",23.8 g
same,"body weight, Mean","[6]; 50 mg/kg/day oral, week 5",23.6 g
same,"body weight, Mean","[6]; 50 mg/kg/day oral, week 6",23.8 g
same,"body weight, Mean","[6]; 50 mg/kg/day oral, week 7",24 g
same,body weight compared to the disease control group,"[6]; 50 mg/kg, after week 8",statistically significantly increased
